Reference: ChEMBL document CHEMBL1201862, “PubChem BioAssay data set” (2004)
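Compound exposure: 48 hours, 5 concentrations, 96-well plates. Here, GI50 denotes the concentration required for 50% inhibition of growth.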 The source made the active and inactive calls. Rule as the data show it: active = GI50 up to about 1.1 µM and inactive = higher.

Tests used:
Experiment in all cases: NCI anticancer screen, dose series, 48 h
CCRF-CEM = tested on: CCRF-CEM
SF-268 = tested on: SF-268
COLO 205 = tested on: COLO 205
HL-60 = tested on: HL-60
Hs-578T = tested on: Hs-578T
MCF7 = tested on: MCF7
SK-MEL-2 = tested on: SK-MEL-2
T47D = tested on: T47D
NCI-H460 = tested on: NCI-H460
OVCAR-3 = tested on: OVCAR-3
LOX IMVI = tested on: LOX IMVI
HT-29 = tested on: HT-29
SF-539 = tested on: SF-539
IGROV-1 = tested on: IGROV-1
M14 = tested on: M14
HOP-92 = tested on: HOP-92
OVCAR-5 = tested on: OVCAR-5
UACC-257 = tested on: UACC-257
BT-549 = tested on: BT-549

SMILES | GI50 (CCRF-CEM) | GI50 (SF-268) | GI50 (COLO 205) | GI50 (HL-60) | GI50 (Hs-578T) | GI50 (MCF7) | GI50 (SK-MEL-2) | GI50 (T47D) | GI50 (NCI-H460) | GI50 (OVCAR-3) | GI50 (LOX IMVI) | GI50 (HT-29) | GI50 (SF-539) | GI50 (IGROV-1) | GI50 (M14) | GI50 (HOP-92) | GI50 (OVCAR-5) | GI50 (UACC-257) | GI50 (BT-549)
CO[C@@H]1C[C@H](OC(N)=O)[C@@H]2C=C[C@@H]3/C=C(C)/C=C/[C@@H](C)[C@H](/C(C)=C/[C@@H](C)NC(C)=O)OC(=O)/C=C/C=C(C)\C=C\[C@]3(C)[C@@H]2C1 [SUPERSTOLIDE B] | 0.107 µM (active) | 0.0724 µM (active) | < 0.005 µM (active) | < 0.005 µM (active) | < 0.005 µM (active) | 0.00693 µM (active) | 0.319 µM (active) | < 0.005 µM (active) | < 0.005 µM (active) | < 0.005 µM (active) | < 0.005 µM (active) | < 0.005 µM (active) | < 0.005 µM (active) | < 0.005 µM (active) | < 0.005 µM (active) | < 0.005 µM (active) | 0.466 µM (active) | 0.0189 µM (active) | 0.224 µM (active)
C[N+]1(C)C2Cc3ccccc3C1Cc1ccccc12 | > 100 µM (inactive) | > 100 µM (inactive) | > 100 µM (inactive) | > 100 µM (inactive) | > 100 µM (inactive) | > 100 µM (inactive) | > 100 µM (inactive) | > 100 µM (inactive) | > 100 µM (inactive) | 90.8 µM (inactive) | > 100 µM (inactive) | > 100 µM (inactive) | > 100 µM (inactive) | > 100 µM (inactive) | > 100 µM (inactive) | 61.1 µM (inactive) | > 100 µM (inactive) | > 100 µM (inactive) | > 100 µM (inactive)
Cn1ncc(NCCn2cnc3c2c(=O)n(C)c(=O)n3C)c(Cl)c1=O | > 100 µM (inactive) | > 100 µM (inactive) | > 100 µM (inactive) | > 100 µM (inactive) | > 100 µM (inactive) | > 100 µM (inactive) | > 100 µM (inactive) | > 100 µM (inactive) | > 100 µM (inactive) | > 100 µM (inactive) | > 100 µM (inactive) | > 100 µM (inactive) | > 100 µM (inactive) | > 100 µM (inactive) | > 100 µM (inactive) | > 100 µM (inactive) | > 100 µM (inactive) | > 100 µM (inactive) | > 100 µM (inactive)
